Measurements as given in the supplement of paper PMC10307832.

Tests used:
Experiment in all cases: relative viability (nuclei count vs DMSO), 5 days (fraction); higher = more cells survive
Alpelisib + OSI-027 = compound: Cc1nc(NC(=O)N2CCC[C@H]2C(N)=O)sc1-c1ccnc(C(C)(C)C(F)(F)F)c1 [Alpelisib] + COc1cccc2cc(-c3nc([C@H]4CC[C@H](C(=O)O)CC4)n4ncnc(N)c34)[nH]c12 [OSI-027] (partner 0.5 µM)
Procedure, shortened: (§1)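 Cells from lung cancer lines were seeded into 1536-well plates and, one day later, dosed by pin tool. Treatments were either a single drug or a fixed dose of an anchor drug with five library-drug doses (not always all listed) in √10 steps. After 5 days, nuclei were stained in a one-step fixation (final 0.05% Triton X-100, 1% formaldehyde, 1 ug/ml Hoechst) and counted on 4× images, and relative viability is the treated-to-vehicle nuclei ratio, as the median of duplicate plates.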

OSI-027 + Trametinib = compound: COc1cccc2cc(-c3nc([C@H]4CC[C@H](C(=O)O)CC4)n4ncnc(N)c34)[nH]c12 [OSI-027] + CC(=O)Nc1cccc(-n2c(=O)n(C3CC3)c(=O)c3c(Nc4ccc(I)cc4F)n(C)c(=O)c(C)c32)c1 [Trametinib] (partner 0.02 µM)
Procedure, shortened: as §1

OSI-027 + Dasatinib = compound: COc1cccc2cc(-c3nc([C@H]4CC[C@H](C(=O)O)CC4)n4ncnc(N)c34)[nH]c12 [OSI-027] + Cc1nc(Nc2ncc(C(=O)Nc3c(C)cccc3Cl)s2)cc(N2CCN(CCO)CC2)n1 [Dasatinib] (partner 0.075 µM)
Procedure, shortened: as §1

Vemurafenib + Tozasertib = compound: CCCS(=O)(=O)Nc1ccc(F)c(C(=O)c2c[nH]c3ncc(-c4ccc(Cl)cc4)cc23)c1F [Vemurafenib] + Cc1cc(Nc2cc(N3CCN(C)CC3)nc(Sc3ccc(NC(=O)C4CC4)cc3)n2)n[nH]1 [Tozasertib] (partner 0.1 µM)
Procedure, shortened: as §1

| Cell Line | relative viability (Alpelisib + OSI-027; first compound 0.04 µM) | relative viability (Alpelisib + OSI-027; first compound 0.1265 µM) | relative viability (Alpelisib + OSI-027; first compound 0.4 µM) | relative viability (Alpelisib + OSI-027; first compound 1.265 µM) | relative viability (Alpelisib + OSI-027; first compound 4 µM) | relative viability (OSI-027 + Trametinib; first compound 0.01 µM) | relative viability (OSI-027 + Trametinib; first compound 0.03162 µM) | relative viability (OSI-027 + Trametinib; first compound 0.1 µM) | relative viability (OSI-027 + Trametinib; first compound 0.3162 µM) | relative viability (OSI-027 + Trametinib; first compound 1 µM) | relative viability (OSI-027 + Dasatinib; first compound 0.01 µM) | relative viability (OSI-027 + Dasatinib; first compound 0.03162 µM) | relative viability (OSI-027 + Dasatinib; first compound 0.1 µM) | relative viability (OSI-027 + Dasatinib; first compound 0.3162 µM) | relative viability (OSI-027 + Dasatinib; first compound 1 µM) | relative viability (Vemurafenib + Tozasertib; first compound 0.03162 µM) | relative viability (Vemurafenib + Tozasertib; first compound 0.3162 µM) | relative viability (Vemurafenib + Tozasertib; first compound 1 µM) | relative viability (Vemurafenib + Tozasertib; first compound 0.1 µM) |
| --- | --- | --- | --- | --- | --- | --- | --- | --- | --- | --- | --- | --- | --- | --- | --- | --- | --- | --- | --- |
| NCI-H1993 | 0.596 | 0.492 | 0.524 | 0.571 | 0.521 | 0.474 | 0.548 | 0.523 | 0.412 | 0.505 | 0.516 | 0.543 | 0.469 | 0.541 | 0.549 | 0.473 | 0.569 | 0.571 | – |
| NCI-H1437 | 0.796 | 0.842 | 0.754 | 0.527 | 0.319 | 0.43 | 0.406 | 0.493 | 0.39 | 0.248 | 0.421 | 0.441 | 0.32 | 0.373 | 0.192 | 0.404 | 0.396 | 0.363 | 0.381 |
| NCI-H522 | 0.722 | 0.622 | 0.605 | 0.629 | 0.5 | 0.691 | 0.709 | 0.725 | 0.632 | 0.463 | 0.963 | 0.944 | 0.723 | 0.629 | 0.736 | 0.609 | 0.592 | 0.631 | 0.471 |
| NCI-H647 | 0.614 | 0.576 | 0.626 | 0.392 | 0.471 | 0.367 | 0.395 | 0.438 | 0.385 | 0.236 | 0.126 | 0.14 | 0.157 | 0.171 | 0.071 | 0.262 | 0.271 | 0.248 | 0.263 |
| HCC-78 | 0.378 | 0.306 | 0.324 | 0.335 | 0.318 | 0.689 | 0.646 | 0.74 | 0.637 | 0.35 | 0.329 | 0.356 | 0.3 | 0.266 | 0.325 | 0.405 | 0.507 | 0.468 | 0.316 |
